# Assay results reported in publication PMC6864537, “Novel Thiazolidin-4-ones as Potential Non-Nucleoside Inhibitors of HIV-1 Reverse Transcriptase” (Molecules, 2019).
# Molecular target: T1, HIV-1 Reverse Transcriptase (Human immunodeficiency virus type 1 group M subtype B, UniProt P03366)
# T1 construct: Lys101, Val179 (p66 subunit) and Glu138 (p51 subunit); purchased Roche
# Assay: HIV-1 RT inhibitory action, colorimetric photometric immunoassay kit (Roche)
# Format: biochemical
# Settings: for IC50: IC50 (μM), 45 min pre-incubation, 2 h at 37 °C
# Procedure: For the evaluation of the HIV-1 Reverse Transcriptase activity, the colorimetric photometric immunoassay kit provided by Roche was used. A two hours incubation at 37 °C was performed, as previously described in our paper following a pre-incubation step in which reverse transcriptase was incubated in the presence of the potential inhibitor for 45 min at room temperature before the addition of the substrate. The total-activity was measured in the absence of inhibitors (compounds) with the addition of an equal volume of the solvent of the compounds to the reaction mixture. For the determination of enzyme activity, incubation in the absence of enzyme was used as blank. Different inhibitor concentrations were added for the calculation of IC50 values.
smiles,measurement,value
"O=C1CSC(c2c(F)cccc2F)N1c1nc2cccc(Cl)c2s1 (stereo not shown) [Compound 1, 3-(7-Chloro-benzo[d]thiazol-2-yl)-2-(2,6-difluorophenyl)thiazolidin-4-one]",inhibition at 4 µM,70%
same,IC50,0.21 µM
"O=C1CSC(c2c(F)cccc2Cl)N1c1nc2cccc(Cl)c2s1 (stereo not shown) [Compound 2, 3-(7-Chloro-benzo[d]thiazol-2-yl)-2-(2-chloro-6-fluorophenyl)thiazolidin-4-one]",inhibition at 4 µM,72%
same,IC50,0.0047 µM
"O=C1CSC(c2ccc(F)cc2)N1c1nc2ccc(F)cc2s1 (stereo not shown) [Compound 3, 3-(6-Fluoro-benzo[d]thiazol-2-yl)-2-(4-fluorophenyl)thiazolidin-4-one]",inhibition at 4 µM,72%
same,IC50,0.15 µM
"O=C1CSC(c2ccc([N+](=O)[O-])cc2)N1c1nc2ccc(F)cc2s1 (stereo not shown) [Compound 4, 3-(6-Fluoro-benzo[d]thiazol-2-yl)-2-(4-nitrophenyl)thiazolidin-4-one]",inhibition at 4 µM,54%
same,IC50,3.8 µM
"O=C1CSC(c2ccc(Cl)cc2)N1c1nc2ccc(F)cc2s1 (stereo not shown) [Compound 5, 3-(6-Fluoro-benzo[d]thiazol-2-yl)-2-(4-chlorophenyl)thiazolidin-4-one]",inhibition at 4 µM,44%
same,IC50,> 4 µM
"COc1ccc(C2SCC(=O)N2c2nc3ccc(F)cc3s2)cc1 (stereo not shown) [Compound 6, 3-(6-Fluoro-benzo[d]thiazol-2-yl)-2-(4-methoxyphenyl)thiazolidin-4-one]",inhibition at 4 µM,35%
same,IC50,> 4 µM
"O=C1CSC(c2ccc(O)cc2)N1c1nc2ccc(F)cc2s1 (stereo not shown) [Compound 7, 3-(6-Fluoro-benzo[d]thiazol-2-yl)-2-(4-hydroxyphenyl)thiazolidin-4-one]",inhibition at 4 µM,50%
same,IC50,4 µM
"O=C1CSC(c2ccc(F)cc2)N1c1nc2ccc(Cl)cc2s1 (stereo not shown) [Compound 8, 3-(6-Chloro-benzo[d]thiazol-2-yl)-2-(4-fluorophenyl)thiazolidin-4-one]",inhibition at 4 µM,83%
same,IC50,0.26 µM
"O=C1CSC(c2ccc(O)cc2)N1c1nc2ccc(Cl)cc2s1 (stereo not shown) [Compound 9, 3-(6-Chloro-benzo[d]thiazol-2-yl)-2-(4-hydroxyphenyl)thiazolidin-4-one]",inhibition at 4 µM,56%
same,IC50,0.001 µM
"O=C1CSC(c2ccc(F)cc2)N1c1nc2c(Cl)cccc2s1 (stereo not shown) [Compound 10, 3-(4-Chloro-benzo[d]thiazol-2-yl)-2-(4-fluorophenyl)thiazolidin-4-one]",inhibition at 4 µM,63%
same,IC50,0.001 µM
"O=C1CSC(c2ccc([N+](=O)[O-])cc2)N1c1nc2c(Cl)cccc2s1 (stereo not shown) [Compound 11, 3-(4-Chloro-benzo[d]thiazol-2-yl)-2-(4-nitrophenyl)thiazolidin-4-one]",inhibition at 4 µM,40%
same,IC50,> 4 µM
"O=C1CSC(c2ccc(Cl)cc2)N1c1nc2c(Cl)cccc2s1 (stereo not shown) [Compound 12, 3-(4-Chloro-benzo[d]thiazol-2-yl)-2-(4-chlorophenyl)thiazolidin-4-one]",inhibition at 4 µM,50%
same,IC50,4 µM
"COc1ccc(C2SCC(=O)N2c2nc3c(Cl)cccc3s2)cc1 (stereo not shown) [Compound 13, 3-(4-Chloro-benzo[d]thiazol-2-yl)-2-(4-methoxyphenyl)thiazolidin-4-one]",inhibition at 4 µM,65%
same,IC50,1.99 µM
"O=C1CSC(c2ccc(O)cc2)N1c1nc2c(Cl)cccc2s1 (stereo not shown) [Compound 14, 3-(4-Chloro-benzo[d]thiazol-2-yl)-2-(4-hydroxyphenyl)thiazolidin-4-one]",inhibition at 4 µM,83%
same,IC50,0.01 µM
"COc1cccc2sc(N3C(=O)CSC3c3ccc(F)cc3)nc12 (stereo not shown) [Compound 15, 3-(4-Methoxy-benzo[d]thiazol-2-yl)-2-(4-flurophenyl)thiazolidin-4-one]",inhibition at 4 µM,69%
same,IC50,2.08 µM
"COc1cccc2sc(N3C(=O)CSC3c3ccc([N+](=O)[O-])cc3)nc12 (stereo not shown) [Compound 16, 3-(4-Methoxy-benzo[d]thiazol-2-yl)-2-(4-nitrophenyl)thiazolidin-4-one]",inhibition at 4 µM,68%
same,IC50,2.2 µM
"COc1cccc2sc(N3C(=O)CSC3c3ccc(Cl)cc3)nc12 (stereo not shown) [Compound 17, 3-(4-Methoxy-benzo[d]thiazol-2-yl)-2-(4-chlorophenyl)thiazolidin-4-one]",inhibition at 4 µM,67%
same,IC50,2.6 µM
"COc1ccc(C2SCC(=O)N2c2nc3c(OC)cccc3s2)cc1 (stereo not shown) [Compound 18, 3-(4-Methoxy-benzo[d]thiazol-2-yl)-2-(4-methoxyphenyl)thiazolidin-4-one]",inhibition at 4 µM,72%
same,IC50,2.69 µM
"COc1cccc2sc(N3C(=O)CSC3c3ccc(O)cc3)nc12 (stereo not shown) [Compound 19, 3-(4-Methoxy-benzo[d]thiazol-2-yl)-2-(4-hydroxyphenyl)thiazolidin-4-one]",inhibition at 4 µM,71%
same,IC50,2.62 µM
"COc1ccc2nc(N3C(=O)CSC3c3ccc(F)cc3)sc2c1 (stereo not shown) [Compound 20, 3-(6-Methoxy-benzo[d]thiazol-2-yl)-2-(4-fluorophenyl)thiazolidin-4-one]",inhibition at 4 µM,55%
same,IC50,1.51 µM
"COc1ccc2nc(N3C(=O)CSC3c3ccc([N+](=O)[O-])cc3)sc2c1 (stereo not shown) [Compound 21, 3-(6-Methoxy-benzo[d]thiazol-2-yl)-2-(4-nitrophenyl)thiazolidin-4-one]",inhibition at 4 µM,50%
same,IC50,4 µM
"COc1ccc2nc(N3C(=O)CSC3c3ccc(Cl)cc3)sc2c1 (stereo not shown) [Compound 22, 3-(6-Methoxy-benzo[d]thiazol-2-yl)-2-(4-chlorophenyl)thiazolidin-4-one]",inhibition at 4 µM,72%
same,IC50,2.76 µM
"COc1ccc(C2SCC(=O)N2c2nc3ccc(OC)cc3s2)cc1 (stereo not shown) [Compound 23, 3-(6-Methoxy-benzo[d]thiazol-2-yl)-2-(4-methoxyphenyl)thiazolidin-4-one]",inhibition at 4 µM,73%
same,IC50,2.39 µM
"CCOc1ccc2nc(N3C(=O)CSC3c3ccc(F)cc3)sc2c1 (stereo not shown) [Compound 24, 3-(6-Ethoxy-benzo[d]thiazol-2-yl)-2-(4-fluorophenyl)thiazolidin-4-one]",inhibition at 4 µM,36%
same,IC50,> 4 µM
"CCOc1ccc2nc(N3C(=O)CSC3c3ccc([N+](=O)[O-])cc3)sc2c1 (stereo not shown) [Compound 25, 3-(6-Ethoxy-benzo[d]thiazol-2-yl)-2-(4-nitrophenyl)thiazolidin-4-one]",inhibition at 4 µM,44%
same,IC50,> 4 µM
"CCOc1ccc2nc(N3C(=O)CSC3c3ccc(Cl)cc3)sc2c1 (stereo not shown) [Compound 26, 3-(6-Ethoxy-benzo[d]thiazol-2-yl)-2-(4-chlorophenyl)thiazolidin-4-one]",inhibition at 4 µM,73%
same,IC50,2.48 µM
"CCOc1ccc2nc(N3C(=O)CSC3c3ccc(OC)cc3)sc2c1 (stereo not shown) [Compound 27, 3-(6-Ethoxy-benzo[d]thiazol-2-yl)-2-(4-methoxyphenyl)thiazolidin-4-one]",inhibition at 4 µM,76%
same,IC50,1.93 µM
"CCOc1ccc2nc(N3C(=O)CSC3c3ccc(O)cc3)sc2c1 (stereo not shown) [Compound 28, 3-(6-Ethoxy-benzo[d]thiazol-2-yl)-2-(4-hydroxyphenyl)thiazolidin-4-one]",inhibition at 4 µM,62%
same,IC50,2 µM
"O=C1CSC(c2c(Cl)cccc2Cl)N1c1nc2ccc(OC(F)(F)F)cc2s1 (stereo not shown) [Compound 29, 3-(6-Trifluoromethoxy-benzo[d]thiazol-2-yl)-2-(2,6-dichlorophenyl) thiazolidin-4-one]",inhibition at 4 µM,49%
same,IC50,4.28 µM
"O=C1CSC(c2cccc(Cl)c2Cl)N1c1nc2ccc(OC(F)(F)F)cc2s1 (stereo not shown) [Compound 30, 3-(6-Trifluoromethoxy-benzo[d]thiazol-2-yl)-2-(2,3-dichlorophenyl) thiazolidin-4-one]",inhibition at 4 µM,46%
same,IC50,> 4 µM
"O=C1CSC(c2ccc([N+](=O)[O-])cc2)N1c1nc2ccc(OC(F)(F)F)cc2s1 (stereo not shown) [Compound 31, 3-(6-Trifluoromethoxy-benzo[d]thiazol-2-yl)-2-(4-nitrophenyl)thiazolidin-4-one]",inhibition at 4 µM,46%
same,IC50,> 4 µM
"O=C1CSC(c2ccc(Cl)cc2)N1c1nc2ccc(OC(F)(F)F)cc2s1 (stereo not shown) [Compound 32, 3-(6-Trifluoromethoxy-benzo[d]thiazol-2-yl)-2-(4-chlorophenyl)thiazolidin-4-one]",inhibition at 4 µM,46%
same,IC50,> 4 µM
